pIC50: −log10 of the molar value.
Test system: 994946-033-R-J1-PDC complex spheroid viability
Experiment: Anticancer human tumor 994946-033-R-J1-PDC patient-derived melanoma cell line growth inhibition [POLQ]
Details: for pIC50: curve of first compound; for viability, T/C: stronger effect = lower value
In short: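 Complex spheroid viability model combining PDC tumour cells with endothelial (HUVEC) and MSC stromal cells. Novobiocin, ART-558 or RP6685 were tested singly and in combination with standard and investigational anticancer drugs. Each was titrated in half-log steps from near clinical Cmax, or from 10 microM where Cmax was unknown.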

[1] = second compound 0.0316 µM, first compound 0.0316 µM
[2] = second compound 0.0316 µM, first compound 0.1 µM
[3] = second compound 0.0316 µM, first compound 0.316 µM
[4] = second compound 0.0316 µM, first compound 1 µM
[5] = second compound 0.0316 µM, first compound 3.16 µM
[6] = second compound 0.0316 µM, first compound 10 µM
[7] = second compound 0.1 µM, first compound 0.0316 µM
[8] = second compound 0.1 µM, first compound 0.1 µM
[9] = second compound 0.1 µM, first compound 0.316 µM
[10] = second compound 0.1 µM, first compound 1 µM
[11] = second compound 0.1 µM, first compound 3.16 µM
[12] = second compound 0.1 µM, first compound 10 µM
[13] = second compound 0.316 µM, first compound 0.0316 µM
[14] = second compound 0.316 µM, first compound 0.1 µM
[15] = second compound 0.316 µM, first compound 0.316 µM
[16] = second compound 0.316 µM, first compound 1 µM
[17] = second compound 0.316 µM, first compound 3.16 µM
[18] = second compound 0.316 µM, first compound 10 µM
[19] = second compound 1 µM, first compound 0.0316 µM
[20] = second compound 1 µM, first compound 0.1 µM
[21] = second compound 1 µM, first compound 0.316 µM
[22] = second compound 1 µM, first compound 1 µM
[23] = second compound 1 µM, first compound 3.16 µM
[24] = second compound 1 µM, first compound 10 µM
[25] = second compound 3.16 µM, first compound 0.0316 µM
[26] = second compound 3.16 µM, first compound 0.1 µM
[27] = second compound 3.16 µM, first compound 0.316 µM
[28] = second compound 3.16 µM, first compound 1 µM
[29] = second compound 3.16 µM, first compound 3.16 µM
[30] = second compound 3.16 µM, first compound 10 µM
[31] = second compound 10 µM, first compound 0.0316 µM
[32] = second compound 10 µM, first compound 0.1 µM
[33] = second compound 10 µM, first compound 0.316 µM
[34] = second compound 10 µM, first compound 1 µM
[35] = second compound 10 µM, first compound 3.16 µM
[36] = second compound 10 µM, first compound 10 µM
[37] = second compound 0.0316 µM, first compound 0.00316 µM
[38] = second compound 0.0316 µM, first compound 0.01 µM
[39] = second compound 0.1 µM, first compound 0.00316 µM
[40] = second compound 0.1 µM, first compound 0.01 µM
[41] = second compound 0.316 µM, first compound 0.00316 µM
[42] = second compound 0.316 µM, first compound 0.01 µM
[43] = second compound 1 µM, first compound 0.00316 µM
[44] = second compound 1 µM, first compound 0.01 µM
[45] = second compound 3.16 µM, first compound 0.00316 µM
[46] = second compound 3.16 µM, first compound 0.01 µM
[47] = second compound 10 µM, first compound 0.00316 µM
[48] = second compound 10 µM, first compound 0.01 µM
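Note: spheroids exposed to drugs for 7 days.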
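Throughout, for viability, T/C: 100% = DMSO vehicle treated spheroids.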

For `CCCS(=O)(=O)Nc1ccc(F)c(C(=O)c2c[nH]c3ncc(-c4ccc(Cl)cc4)cc23)c1F` + COC1C(OC(N)=O)C(O)C(Oc2ccc3c(O)c(NC(=O)c4ccc(O)c(CC=C(C)C)c4)c(=O)oc3c2C)OC1(C)C, the pIC50 (second compound 0.0316 µM) was 5.18, the pIC50 (second compound 0.1 µM) was 5.22 and the pIC50 (second compound 0.316 µM) was 5.29. For the same compound, the pIC50 (second compound 1 µM) was 5.21, the pIC50 (second compound 3.16 µM) was 5.31 and the pIC50 (second compound 10 µM) was 5.21. It also gave a viability, T/C [1] of 128%, a viability, T/C [2] of 113% and a viability, T/C [3] of 99.6%. For the same compound, the viability, T/C [4] was 93.4%, the viability, T/C [5] was 109% and the viability, T/C [6] was 18.3%. For the same compound, the viability, T/C [7] was 102%, the viability, T/C [8] was 98.7% and the viability, T/C [9] was 89.3%. It also gave a viability, T/C [10] of 105%, a viability, T/C [11] of 106% and a viability, T/C [12] of 9.61%. For the same compound, the viability, T/C [13] was 104%, the viability, T/C [14] was 101% and the viability, T/C [15] was 97.3%. It also gave a viability, T/C [16] of 121%, a viability, T/C [17] of 75.3% and a viability, T/C [18] of 15.4%. For the same compound, the viability, T/C [19] was 90.5%, the viability, T/C [20] was 93.4% and the viability, T/C [21] was 90.4%. The viability, T/C [22] was 108%, the viability, T/C [23] was 91.3% and the viability, T/C [24] was 19.2%. The viability, T/C [25] was 113%, the viability, T/C [26] was 111% and the viability, T/C [27] was 104%. For the same compound, the viability, T/C [28] was 93.8%, the viability, T/C [29] was 67.5% and the viability, T/C [30] was 20.2%. For the same compound, the viability, T/C [31] was 102%, the viability, T/C [32] was 107% and the viability, T/C [33] was 112%. For the same compound, the viability, T/C [34] was 94.2%, the viability, T/C [35] was 99.9% and the viability, T/C [36] was 13.5%.

`CNCc1ccc(-c2[nH]c3cc(F)cc4c3c2CCNC4=O)cc1` + COC1C(OC(N)=O)C(O)C(Oc2ccc3c(O)c(NC(=O)c4ccc(O)c(CC=C(C)C)c4)c(=O)oc3c2C)OC1(C)C was tested, and the pIC50 (second compound 0.0316 µM) was < 5.00, the pIC50 (second compound 0.1 µM) was < 5.00 and the pIC50 (second compound 0.316 µM) was < 5.00. For the same compound, the pIC50 (second compound 1 µM) was < 5.00, the pIC50 (second compound 3.16 µM) was < 5.00 and the pIC50 (second compound 10 µM) was < 5.00. For the same compound, the viability, T/C [1] was 114%, the viability, T/C [2] was 93.7% and the viability, T/C [3] was 96%. For the same compound, the viability, T/C [4] was 96.3%, the viability, T/C [5] was 101% and the viability, T/C [6] was 70.9%. For the same compound, the viability, T/C [7] was 107%, the viability, T/C [8] was 119% and the viability, T/C [9] was 83%. It also gave a viability, T/C [10] of 114%, a viability, T/C [11] of 94.4% and a viability, T/C [12] of 93.3%. For the same compound, the viability, T/C [13] was 117%, the viability, T/C [14] was 126% and the viability, T/C [15] was 105%. For the same compound, the viability, T/C [16] was 117%, the viability, T/C [17] was 107% and the viability, T/C [18] was 61.1%. The viability, T/C [19] was 107%, the viability, T/C [20] was 91.4% and the viability, T/C [21] was 88.4%. The viability, T/C [22] was 110%, the viability, T/C [23] was 109% and the viability, T/C [24] was 61.6%. For the same compound, the viability, T/C [25] was 92.9%, the viability, T/C [26] was 95.2% and the viability, T/C [27] was 106%. It also gave a viability, T/C [28] of 112%, a viability, T/C [29] of 99.2% and a viability, T/C [30] of 72.8%. The viability, T/C [31] was 117%, the viability, T/C [32] was 94.6% and the viability, T/C [33] was 80.3%. For the same compound, the viability, T/C [34] was 85.1%, the viability, T/C [35] was 94.5% and the viability, T/C [36] was 64.8%.

Work on `COc1cccc(OCCCN)c1-c1cc(Nc2cnc(C#N)cn2)n[nH]1` + COC1C(OC(N)=O)C(O)C(Oc2ccc3c(O)c(NC(=O)c4ccc(O)c(CC=C(C)C)c4)c(=O)oc3c2C)OC1(C)C yielded a pIC50 (second compound 0.0316 µM) of 7.73, a pIC50 (second compound 0.1 µM) of 7.84 and a pIC50 (second compound 0.316 µM) of 7.92. The pIC50 (second compound 1 µM) was 8.25, the pIC50 (second compound 3.16 µM) was 7.76 and the pIC50 (second compound 10 µM) was 8.35. The viability, T/C [37] was 73.9%, the viability, T/C [38] was 69.9% and the viability, T/C [1] was 32.6%. The viability, T/C [2] was 24.9%, the viability, T/C [3] was 13.1% and the viability, T/C [4] was 9.24%. The viability, T/C [39] was 84.2%, the viability, T/C [40] was 60.2% and the viability, T/C [7] was 27.5%. It also gave a viability, T/C [8] of 14.4%, a viability, T/C [9] of 22% and a viability, T/C [10] of 11.6%. It also gave a viability, T/C [41] of 84.3%, a viability, T/C [42] of 52.7% and a viability, T/C [13] of 34.9%. The viability, T/C [14] was 11%, the viability, T/C [15] was 26.5% and the viability, T/C [16] was 18.1%. For the same compound, the viability, T/C [43] was 57.6%, the viability, T/C [44] was 42.3% and the viability, T/C [19] was 25.7%. The viability, T/C [20] was 17.3%, the viability, T/C [21] was 30.8% and the viability, T/C [22] was 13.8%. It also gave a viability, T/C [45] of 85.8%, a viability, T/C [46] of 54.5% and a viability, T/C [25] of 38.7%. The viability, T/C [26] was 32.7%, the viability, T/C [27] was 19.7% and the viability, T/C [28] was 9.09%. The viability, T/C [47] was 56.9%, the viability, T/C [48] was 34.2% and the viability, T/C [31] was 18.9%. For the same compound, the viability, T/C [32] was 21.2%, the viability, T/C [33] was 20.2% and the viability, T/C [34] was 17.5%.

`Cn1ncnc1[C@H]1c2n[nH]c(=O)c3cc(F)cc(c23)N[C@@H]1c1ccc(F)cc1` + COC1C(OC(N)=O)C(O)C(Oc2ccc3c(O)c(NC(=O)c4ccc(O)c(CC=C(C)C)c4)c(=O)oc3c2C)OC1(C)C was tested, and the pIC50 (second compound 0.0316 µM) was < 7.00, the pIC50 (second compound 0.1 µM) was < 7.00 and the pIC50 (second compound 0.316 µM) was < 7.00. The pIC50 (second compound 1 µM) was < 7.00, the pIC50 (second compound 3.16 µM) was < 7.00 and the pIC50 (second compound 10 µM) was < 7.00. It also gave a viability, T/C (second compound 0.0316 µM, first compound 0.000316 µM) of 92.5%, a viability, T/C (second compound 0.0316 µM, first compound 0.001 µM) of 96.1% and a viability, T/C [37] of 123%. For the same compound, the viability, T/C [38] was 93.6%, the viability, T/C [1] was 71.5% and the viability, T/C [2] was 63.2%. For the same compound, the viability, T/C (second compound 0.1 µM, first compound 0.000316 µM) was 97.7%, the viability, T/C (second compound 0.1 µM, first compound 0.001 µM) was 81.9% and the viability, T/C [39] was 93.4%. For the same compound, the viability, T/C [40] was 94.6%, the viability, T/C [7] was 72.8% and the viability, T/C [8] was 55.6%. It also gave a viability, T/C (second compound 0.316 µM, first compound 0.000316 µM) of 93.7%, a viability, T/C (second compound 0.316 µM, first compound 0.001 µM) of 101% and a viability, T/C [41] of 93.3%. For the same compound, the viability, T/C [42] was 76.6%, the viability, T/C [13] was 66.3% and the viability, T/C [14] was 77.7%. The viability, T/C (second compound 1 µM, first compound 0.000316 µM) was 91.4%, the viability, T/C (second compound 1 µM, first compound 0.001 µM) was 103% and the viability, T/C [43] was 104%. It also gave a viability, T/C [44] of 106%, a viability, T/C [19] of 59.9% and a viability, T/C [20] of 66.4%. It also gave a viability, T/C (second compound 3.16 µM, first compound 0.000316 µM) of 106%, a viability, T/C (second compound 3.16 µM, first compound 0.001 µM) of 81.2% and a viability, T/C [45] of 117%. It also gave a viability, T/C [46] of 82.3%, a viability, T/C [25] of 70.4% and a viability, T/C [26] of 65.2%. For the same compound, the viability, T/C (second compound 10 µM, first compound 0.000316 µM) was 89.5%, the viability, T/C (second compound 10 µM, first compound 0.001 µM) was 102% and the viability, T/C [47] was 110%. It also gave a viability, T/C [48] of 79.5%, a viability, T/C [31] of 78.4% and a viability, T/C [32] of 71.8%.

From PubChem BioAssay AID1963827 (Molecular Pharmacology Branch, DTP, NCI, 2024)
